From ChEMBL document CHEMBL5321272 (J Med Chem, 2023)
Activity calls are given as the source filed them. The calls are words filed in the database; no cut-off is given here.

Experiments:
BaF3 [1] = assay: Antiproliferative activity against mouse BaF3 cells harboring FLT3 D835V mutant assessed as reduction in cell viability incubated for 72 hrs by CellTiter 96 Aqueous One Solution Cell Proliferation Assay; format: functional, cell-based
hERG (KCNH2) = hERG (KCNH2) (Homo sapiens, UniProt Q12809); assay: Inhibition of hERG expressed in HEK293 cells at 20 uM by whole cell patch clamp analysis; format: toxicity, cell-based; details: HEK293 cells expressing hERG
[2] = AUC (infinity) in ICR mouse at 10 mg/kg, po; format: ADME, organism-based; parameters: dose 10 mg/kg, route po; details: in vivo
MV4-11 = assay: cells; details: Homo sapiens, MV4-11, 72 h
Description: Antiproliferative activity against human MV4-11 cells assessed as reduction in cell viability incubated for 72 hrs by CellTiter 96 Aqueous One Solution Cell Proliferation Assay

[3] = biological target: Receptor-type tyrosine-protein kinase FLT3 (Homo sapiens, UniProt P36888, D835Y)
Description: Inhibition of FLT3 D835Y mutant (unknown origin) using peptide substrate TK-S and ATP as substrate incubated for 1 hr by HTRF assay

[4] = Cmax in ICR mouse at 10 mg/kg, po; format: ADME, organism-based; parameters: dose 10 mg/kg, route po; details: in vivo
[5] = biological target: Mast/stem cell growth factor receptor Kit (Homo sapiens, UniProt P10721); assay: Inhibition of c-KIT (unknown origin) using peptide substrate TK-S and ATP as substrate incubated for 1 hr by HTRF assay; format: toxicity
[6] = biological target: T1, Serine/threonine-protein kinase Chk1 (Homo sapiens, UniProt O14757)
T1 sequence (O14757 whole entry): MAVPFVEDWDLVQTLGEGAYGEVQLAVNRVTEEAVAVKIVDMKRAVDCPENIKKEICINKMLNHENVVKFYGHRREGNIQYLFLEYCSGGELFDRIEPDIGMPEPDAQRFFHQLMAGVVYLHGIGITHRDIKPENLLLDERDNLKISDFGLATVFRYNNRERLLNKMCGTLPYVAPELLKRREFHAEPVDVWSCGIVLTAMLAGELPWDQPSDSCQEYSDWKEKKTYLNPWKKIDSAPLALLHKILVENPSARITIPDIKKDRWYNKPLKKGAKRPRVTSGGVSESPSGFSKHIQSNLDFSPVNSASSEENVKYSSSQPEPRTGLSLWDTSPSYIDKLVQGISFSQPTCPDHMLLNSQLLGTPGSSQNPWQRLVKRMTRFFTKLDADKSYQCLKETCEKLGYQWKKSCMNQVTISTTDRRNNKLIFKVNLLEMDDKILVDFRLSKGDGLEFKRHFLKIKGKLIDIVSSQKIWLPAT
Description: Inhibition of CHK1 (unknown origin) using peptide substrate S1 and ATP as substrate incubated for 1 hr by HTRF assay

[7] = Half life in ICR mouse at 10 mg/kg, po; format: ADME, organism-based; details: in vivo
[8] = Selectivity ratio of IC50 for inhibition of c-KIT (unknown origin) to IC50 for inhibition of FLT3 D835Y mutant (unknown origin)
[9] = AUC (last) in ICR mouse at 10 mg/kg, po; format: ADME, organism-based; parameters: dose 10 mg/kg, route po; details: in vivo
BaF3 [10] = assay: Antiproliferative activity against mouse BaF3 cells harboring FLT3 D835F mutant assessed as reduction in cell viability incubated for 72 hrs by CellTiter 96 Aqueous One Solution Cell Proliferation Assay; format: functional, cell-based
[11] = MRT (infinity) in ICR mouse at 10 mg/kg, po; format: ADME, organism-based; details: in vivo
BaF3 [12] = assay: Antiproliferative activity against mouse BaF3 cells harboring FLT3 F691L mutant assessed as reduction in cell viability incubated for 72 hrs by CellTiter 96 Aqueous One Solution Cell Proliferation Assay; format: functional, cell-based
[13] = Tmax in ICR mouse at 10 mg/kg, po; format: ADME, organism-based; details: in vivo

hERG (KCNH2), sequence (Q12809 whole entry): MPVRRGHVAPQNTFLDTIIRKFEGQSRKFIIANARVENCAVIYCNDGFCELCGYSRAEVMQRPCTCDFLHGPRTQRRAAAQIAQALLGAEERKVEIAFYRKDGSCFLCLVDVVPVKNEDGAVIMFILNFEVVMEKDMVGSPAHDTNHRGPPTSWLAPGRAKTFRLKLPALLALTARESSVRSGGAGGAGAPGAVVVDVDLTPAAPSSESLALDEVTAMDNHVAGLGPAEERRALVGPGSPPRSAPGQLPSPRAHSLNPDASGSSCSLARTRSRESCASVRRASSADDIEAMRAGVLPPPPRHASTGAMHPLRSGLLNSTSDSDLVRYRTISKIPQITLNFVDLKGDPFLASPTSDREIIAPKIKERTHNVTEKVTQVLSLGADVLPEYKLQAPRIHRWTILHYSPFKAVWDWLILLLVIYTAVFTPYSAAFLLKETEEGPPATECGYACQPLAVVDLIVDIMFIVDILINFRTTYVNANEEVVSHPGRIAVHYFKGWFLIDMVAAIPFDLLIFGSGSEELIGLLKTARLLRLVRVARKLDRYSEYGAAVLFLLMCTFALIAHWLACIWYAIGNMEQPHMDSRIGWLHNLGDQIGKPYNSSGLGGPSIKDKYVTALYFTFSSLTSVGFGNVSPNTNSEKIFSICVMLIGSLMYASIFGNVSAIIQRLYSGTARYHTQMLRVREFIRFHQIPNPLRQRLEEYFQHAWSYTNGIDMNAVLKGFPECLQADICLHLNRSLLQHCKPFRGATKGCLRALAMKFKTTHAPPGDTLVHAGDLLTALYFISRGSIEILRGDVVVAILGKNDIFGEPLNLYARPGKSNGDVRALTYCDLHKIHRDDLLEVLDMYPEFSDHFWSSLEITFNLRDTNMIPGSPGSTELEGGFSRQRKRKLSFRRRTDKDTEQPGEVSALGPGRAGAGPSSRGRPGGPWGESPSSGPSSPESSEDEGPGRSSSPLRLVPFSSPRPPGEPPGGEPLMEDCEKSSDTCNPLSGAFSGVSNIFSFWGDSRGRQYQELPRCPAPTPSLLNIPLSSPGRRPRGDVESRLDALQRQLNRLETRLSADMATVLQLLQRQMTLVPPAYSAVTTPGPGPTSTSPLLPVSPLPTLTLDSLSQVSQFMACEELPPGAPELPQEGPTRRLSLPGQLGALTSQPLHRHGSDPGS
Mast/stem cell growth factor receptor Kit, sequence (P10721 whole entry): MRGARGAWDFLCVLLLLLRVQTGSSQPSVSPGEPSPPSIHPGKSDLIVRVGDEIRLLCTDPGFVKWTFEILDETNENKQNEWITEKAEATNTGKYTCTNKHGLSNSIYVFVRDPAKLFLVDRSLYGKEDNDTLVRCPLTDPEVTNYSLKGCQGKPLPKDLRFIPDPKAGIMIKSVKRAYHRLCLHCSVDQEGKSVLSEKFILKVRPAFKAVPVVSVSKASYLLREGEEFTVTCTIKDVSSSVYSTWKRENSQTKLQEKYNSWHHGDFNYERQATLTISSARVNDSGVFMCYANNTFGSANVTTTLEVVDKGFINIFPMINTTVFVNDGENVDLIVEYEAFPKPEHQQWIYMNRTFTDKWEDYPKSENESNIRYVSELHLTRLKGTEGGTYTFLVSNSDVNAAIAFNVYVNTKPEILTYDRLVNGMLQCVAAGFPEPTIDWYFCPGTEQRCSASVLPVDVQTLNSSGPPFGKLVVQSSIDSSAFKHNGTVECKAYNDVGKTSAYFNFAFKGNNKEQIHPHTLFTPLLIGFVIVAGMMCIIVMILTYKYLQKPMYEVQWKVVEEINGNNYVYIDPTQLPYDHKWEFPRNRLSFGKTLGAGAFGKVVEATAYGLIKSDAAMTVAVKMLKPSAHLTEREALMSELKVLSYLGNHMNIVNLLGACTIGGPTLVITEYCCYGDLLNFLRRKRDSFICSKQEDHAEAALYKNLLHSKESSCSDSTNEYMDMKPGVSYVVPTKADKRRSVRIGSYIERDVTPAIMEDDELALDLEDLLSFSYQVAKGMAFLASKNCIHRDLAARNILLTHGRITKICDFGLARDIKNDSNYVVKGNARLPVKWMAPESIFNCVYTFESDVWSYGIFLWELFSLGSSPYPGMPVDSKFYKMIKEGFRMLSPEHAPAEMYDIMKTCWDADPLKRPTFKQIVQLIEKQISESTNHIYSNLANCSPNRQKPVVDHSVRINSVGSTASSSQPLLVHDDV

| Compound | Activity (BaF3 [1]) | inhibition at 20 µM (hERG (KCNH2)) | AUC(0-inf) [2] | IC50 (MV4-11) | IC50 [3] | Cmax [4] | IC50 [5] | IC50 [6] | half-life [7] | Ratio IC50 [8] | AUC(0-t) [9] | Activity (BaF3 [10]) | MRT inf [11] | Activity (BaF3 [12]) | Tmax [13] |
| --- | --- | --- | --- | --- | --- | --- | --- | --- | --- | --- | --- | --- | --- | --- | --- |
| CC(=O)N1Cc2ccc(Nc3ncc(C(F)(F)F)c(N[C@H]4CC[C@@H](N)CC4)n3)cc2C1 | Active | 28.3% | 103 ng·h/mL | 0.34 nM | 1.63 nM | 32 ng/mL | 2240 nM | 13.1 nM | 1.21 h | 1370 | 97.8 ng·h/mL | Active | 2.29 h | Active | 2 h |
| CC(C)(O)C(=O)N1CCc2ccc(Nc3ncc(C(F)(F)F)c(N[C@H]4CC[C@@H](N)CC4)n3)cc2C1 | Active | 28.1% | 57.5 ng·h/mL | 0.93 nM | 2.21 nM | 4.06 ng/mL | 8910 nM | 14 nM | 9.08 h | 4030 | 18.6 ng·h/mL | Active | 13.9 h | Active | 0.25 h |
| N[C@H]1CC[C@@H](Nc2nc(Nc3ccc4c(c3)CCN(C(=O)CO)C4)ncc2C(F)(F)F)CC1 | Active | 10.4% | 411 ng·h/mL | 0.28 nM | 0.46 nM | 162 ng/mL | 2030 nM | 17.6 nM | 2.3 h | 4420 | 340 ng·h/mL | Active | 3.43 h | Active | 1 h |
| CC(=O)N1CCc2cc(Nc3ncc(C(F)(F)F)c(N[C@H]4CC[C@@H](N)CC4)n3)ccc2C1 | Active | 33.2% | 1100 ng·h/mL | 0.07 nM | 0.87 nM | 555 ng/mL | 1080 nM | 7.6 nM | 0.81 h | 1240 | 1080 ng·h/mL | Active | 2.22 h | Active | 2 h |
| CC(C)(O)CC(=O)N1Cc2ccc(Nc3ncc(C(F)(F)F)c(N[C@H]4CC[C@@H](N)CC4)n3)cc2C1 | Active | 19.3% | 104 ng·h/mL | 0.48 nM | 1.12 nM | 42.5 ng/mL | 2460 nM | 12.5 nM | 0.81 h | 2200 | 99.6 ng·h/mL | Active | 1.67 h | Active | 1 h |
| C[C@@H](O)C(=O)N1CCc2cc(Nc3ncc(C(F)(F)F)c(N[C@H]4CC[C@@H](N)CC4)n3)ccc2C1 | Active | 14.6% | 226 ng·h/mL | 0.21 nM | 1.25 nM | 80.1 ng/mL | 1800 nM | 10.8 nM | 0.96 h | 1440 | 220 ng·h/mL | Active | 2.05 h | Active | 2 h |
| CC(C)(O)C(=O)N1Cc2ccc(Nc3ncc(C(F)(F)F)c(N[C@H]4CC[C@@H](N)CC4)n3)cc2C1 | Active | 17.5% | 604 ng·h/mL | 0.5 nM | 1.35 nM | 263 ng/mL | 3090 nM | 13.5 nM | 0.63 h | 2290 | 577 ng·h/mL | Active | 1.92 h | Active | 2 h |
